Reference: patent publication US11331289B2, “Antimicrobial composition” (priority 2017, dated 2022)

Columns and labels:
MRSP 16125 = experiment: Time-killing curve, inoculum 5.10^5 CFU/ml (MIC 0.5 μg/ml); assay type: cell-based, Staphylococcus pseudintermedius
Experimental: (§1) The objective of this study is to assess in vitro the time-killing curves of oxyclozanide against four strains of Methicillin-Resistant Staphylococcus from dogs.
(§2) Two Methicillin-Resistant Staphylococcus aureus (MRSA) and two Methicillin-Resistant Staphylococcus pseudintermedius (MRSP) isolated from the clinics have been tested.
(§3) The assessment of time-killing curves has been realized by a broth macrodilution method (Mueller-Hinton II Broth).
(§4) Oxyclozanide is diluted in (DMSO) into sterile tubes in order to obtain the following concentrations from 800 to 6.25 μg/ml. Those concentrations and stock standard solution are then diluted (1/10) in Mueller-Hinton II Broth in order to obtain the following concentrations from […] (See Table 2).
(§5) Each operation is performed under sterile conditions. Each working standard solution (10*the final active ingredient concentration) is distributed in tubes (1 ml, for a final volume of 10 ml after addition of 9 ml of inoculum). One tube without active ingredient is used as growth control (Concentration=0).
(§6) Bacterial isolates are sub-cultured from one cryobead on Columbia agar supplemented with 5% of blood. Pure cultures are incubated during 18-24 hours at 37° C. Three to five isolated colonies of similar appearance are selected from a previous culture and transferred into tubes containing 9 ml of Mueller-Hinton II Broth. The broth is incubated during 12-18 hours at 37° C. 0.5 to 1 ml of this broth is inoculated to another Mueller-Hinton II Broth 9 ml tube which is incubated during 3 to 4 hours at 37° C. to reach the exponential growth phase. The bacterial inoculum grown exponential phase is suspended to an optical density of McFarland standard scale 0.5 equivalent to a bacterial density of 10^8 CFU/ml and then adjusted to a concentration of about 5.10^5 CFU/ml as indicated by the guideline CLSI M26-A and to a second inoculum tested: 10^6 CFU/ml.
(§7) 9 ml of bacterial inoculum grown to exponential phase is added to 1 ml of active ingredient (or Mueller Hinton II Broth for the growth control). Tubes are incubated at 35° C. during 24 hours.
(§8) At times 0, 2, 4, 6 and 24 hours, 100 μl of broth of each tube is sampled and diluted in microplates:
(§9) Each well is re-cultured by streaking 10 μl on Columbia agar supplemented with 5% of blood. Plates are incubated at 37° C. during 18-24 hours incubation. Thus, residual bacterial concentrations are determined (CFU/ml). Results are expressed in log10 values of CFU/ml over-time in broth. Due to the procedure used, the minimal bacterial concentration that can be assessed is 10^2 CFU/ml.

MRSA 16116 = experiment: Time-killing curve, inoculum 10^6 CFU/ml (MIC 0.5 μg/ml); assay type: cell-based, Staphylococcus aureus
Experimental: as §1, §2, §3, §4, §5, §6, §7, §8, §9

SMILES: O=C(Nc1cc(Cl)cc(Cl)c1O)c1c(O)c(Cl)cc(Cl)c1Cl [Oxyclozanide]
- Counting results (MRSP 16125; 1 MIC, 0 h): 4.000E+05 CFU/ml
- Counting results (MRSP 16125; 1 MIC, 2 h): 2.600E+04 CFU/ml
- Counting results (MRSP 16125; 1 MIC, 4 h): 1.900E+04 CFU/ml
- Counting results (MRSP 16125; 1 MIC, 6 h): 1.300E+04 CFU/ml
- Counting results (MRSP 16125; 1 MIC, 24 h): 6.000E+05 CFU/ml
- Counting results (MRSP 16125; 2 MIC, 0 h): 4.000E+05 CFU/ml
- Counting results (MRSP 16125; 2 MIC, 2 h): 1.000E+02 CFU/ml
- Counting results (MRSP 16125; 2 MIC, 4 h): 3.000E+02 CFU/ml
- Counting results (MRSP 16125; 2 MIC, 6 h): 1.000E+02 CFU/ml
- Counting results (MRSP 16125; 2 MIC, 24 h): 2.000E+02 CFU/ml
- Counting results (MRSP 16125; 4 MIC, 0 h): 4.000E+05 CFU/ml
- Counting results (MRSP 16125; 4 MIC, 2 h): 1.000E+02 CFU/ml
- Counting results (MRSP 16125; 4 MIC, 4 h): 1.000E+02 CFU/ml
- Counting results (MRSP 16125; 4 MIC, 6 h): 1.000E+02 CFU/ml
- Counting results (MRSP 16125; 4 MIC, 24 h): 1.000E+02 CFU/ml
- Counting results (MRSP 16125; 8 MIC, 0 h): 4.000E+05 CFU/ml
- Counting results (MRSP 16125; 8 MIC, 2 h): 1.000E+02 CFU/ml
- Counting results (MRSP 16125; 8 MIC, 4 h): 1.000E+02 CFU/ml
- Counting results (MRSP 16125; 8 MIC, 6 h): 1.000E+02 CFU/ml
- Counting results (MRSP 16125; 8 MIC, 24 h): 1.000E+02 CFU/ml
- Counting results (MRSP 16125; 16 MIC, 0 h): 4.000E+05 CFU/ml
- Counting results (MRSP 16125; 16 MIC, 2 h): 1.000E+02 CFU/ml
- Counting results (MRSP 16125; 16 MIC, 4 h): 1.000E+02 CFU/ml
- Counting results (MRSP 16125; 16 MIC, 6 h): 1.000E+02 CFU/ml
- Counting results (MRSP 16125; 16 MIC, 24 h): 1.000E+02 CFU/ml
- Time to obtain bactericidal effect at 4 MIC (MRSP 16125; 16125/5.10^5 CFU/ml, >=3 log10 decrease in CFU): 2 h
- Counting results (MRSP 16125; ¼ MIC, 0 h): 4.000E+05 CFU/ml
- Counting results (MRSP 16125; ¼ MIC, 2 h): 5.500E+05 CFU/ml
- Counting results (MRSP 16125; ¼ MIC, 4 h): 2.600E+06 CFU/ml
- Counting results (MRSP 16125; ¼ MIC, 6 h): 1.600E+07 CFU/ml
- Counting results (MRSP 16125; ¼ MIC, 24 h): 4.900E+10 CFU/ml
- Counting results (MRSP 16125; ½ MIC, 0 h): 4.000E+05 CFU/ml
- Counting results (MRSP 16125; ½ MIC, 2 h): 3.800E+05 CFU/ml
- Counting results (MRSP 16125; ½ MIC, 4 h): 3.100E+05 CFU/ml
- Counting results (MRSP 16125; ½ MIC, 6 h): 3.400E+05 CFU/ml
- Counting results (MRSP 16125; ½ MIC, 24 h): 3.200E+08 CFU/ml
- Counting results (MRSA 16116; 1 MIC, 0 h): 1.500E+06 CFU/ml
- Counting results (MRSA 16116; 1 MIC, 2 h): 3.300E+05 CFU/ml
- Counting results (MRSA 16116; 1 MIC, 4 h): 3.900E+05 CFU/ml
- Counting results (MRSA 16116; 1 MIC, 6 h): 1.600E+06 CFU/ml
- Counting results (MRSA 16116; 1 MIC, 24 h): 2.700E+07 CFU/ml
- Counting results (MRSA 16116; 2 MIC, 0 h): 1.500E+06 CFU/ml
- Counting results (MRSA 16116; 2 MIC, 2 h): 2.200E+04 CFU/ml
- Counting results (MRSA 16116; 2 MIC, 4 h): 1.400E+03 CFU/ml
- Counting results (MRSA 16116; 2 MIC, 6 h): 5.000E+02 CFU/ml
- Counting results (MRSA 16116; 2 MIC, 24 h): 5.900E+05 CFU/ml
- Counting results (MRSA 16116; 4 MIC, 0 h): 1.500E+06 CFU/ml
- Counting results (MRSA 16116; 4 MIC, 2 h): 2.000E+02 CFU/ml
- Counting results (MRSA 16116; 4 MIC, 4 h): 2.000E+02 CFU/ml
- Counting results (MRSA 16116; 4 MIC, 6 h): 1.000E+02 CFU/ml
- Counting results (MRSA 16116; 4 MIC, 24 h): 1.000E+02 CFU/ml
- Counting results (MRSA 16116; 8 MIC, 0 h): 1.500E+06 CFU/ml
- Counting results (MRSA 16116; 8 MIC, 2 h): 1.000E+02 CFU/ml
- Counting results (MRSA 16116; 8 MIC, 4 h): 1.000E+02 CFU/ml
- Counting results (MRSA 16116; 8 MIC, 6 h): 1.000E+02 CFU/ml
- Counting results (MRSA 16116; 8 MIC, 24 h): 1.000E+02 CFU/ml
- Counting results (MRSA 16116; 16 MIC, 0 h): 1.500E+06 CFU/ml
- Counting results (MRSA 16116; 16 MIC, 2 h): 3.000E+02 CFU/ml
- Counting results (MRSA 16116; 16 MIC, 4 h): 1.000E+02 CFU/ml
- Counting results (MRSA 16116; 16 MIC, 6 h): 1.000E+02 CFU/ml
- Counting results (MRSA 16116; 16 MIC, 24 h): 1.000E+02 CFU/ml
- Time to obtain bactericidal effect at 4 MIC (MRSA 16116; 16116/10^6 CFU/ml, >=3 log10 decrease in CFU): 2 h
- Counting results (MRSA 16116; ¼ MIC, 0 h): 1.500E+06 CFU/ml
- Counting results (MRSA 16116; ¼ MIC, 2 h): 2.800E+06 CFU/ml
- Counting results (MRSA 16116; ¼ MIC, 4 h): 2.600E+07 CFU/ml
- Counting results (MRSA 16116; ¼ MIC, 6 h): 3.000E+08 CFU/ml
- Counting results (MRSA 16116; ¼ MIC, 24 h): 3.900E+08 CFU/ml
- Counting results (MRSA 16116; ½ MIC, 0 h): 1.500E+06 CFU/ml
- Counting results (MRSA 16116; ½ MIC, 2 h): 3.000E+06 CFU/ml
- Counting results (MRSA 16116; ½ MIC, 4 h): 3.600E+07 CFU/ml
- Counting results (MRSA 16116; ½ MIC, 6 h): 2.300E+08 CFU/ml
- Counting results (MRSA 16116; ½ MIC, 24 h): 3.100E+08 CFU/ml
